Consider five compounds from patent US20260297542A1, “HERBICIDE RESISTANT PLANTS” (SYNGENTA CROP PROTECTION AG, priority 2023, published 2026).

Test [1] deals with T1, AtPPO1 V365L G404A L479N (SEQ ID NO.136) (Arabidopsis thaliana, UniProt P55826, G404A/L479N/V365L).
T1 construct: made in house; host or cells: E. coli BL21 (DE3) hemG, crude extract
T1 sequence (P55826 35-537 V365L/G404A/L479N): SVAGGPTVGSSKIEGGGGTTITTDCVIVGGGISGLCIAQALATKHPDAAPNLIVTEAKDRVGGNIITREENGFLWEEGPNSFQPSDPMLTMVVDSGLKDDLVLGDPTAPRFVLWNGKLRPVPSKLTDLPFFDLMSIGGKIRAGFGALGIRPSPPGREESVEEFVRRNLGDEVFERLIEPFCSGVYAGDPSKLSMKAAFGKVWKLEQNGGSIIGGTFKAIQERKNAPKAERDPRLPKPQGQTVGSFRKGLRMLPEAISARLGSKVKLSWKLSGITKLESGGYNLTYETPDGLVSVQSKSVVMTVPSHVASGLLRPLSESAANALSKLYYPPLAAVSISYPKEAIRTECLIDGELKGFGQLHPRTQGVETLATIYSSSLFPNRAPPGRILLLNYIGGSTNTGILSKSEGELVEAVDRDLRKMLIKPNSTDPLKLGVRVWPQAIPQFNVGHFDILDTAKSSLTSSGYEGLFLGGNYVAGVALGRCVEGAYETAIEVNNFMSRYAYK
The experiment in a line: fluorescent Protoporphyrinogen Oxidase assay, crude extract. Format: biochemical. As to conditions: read-out: percentage inhibition.

In a further test the test system is Wildtype Samsun tobacco. The experiment in a line: herbicide damage to wild-type tobacco. Conditions: 120 g ai/ha, 0 no visible damage, 100 complete death. Format: in vivo. An excerpt:
Herbicidal damage is visually assessed across the population and a herbicide damage score given at 7 and 14 days. A score of 0 indicates no visible damage or stunting whereas a score of 100 indicates a complete death of the plant. 20 transgenic events (i.e. individual transgenic plants) from each GM tobacco line are transplanted to soil 1 week prior to spraying with PPO inhibiting compounds. WT tobacco is included as a control.
Herbicidal damage was visually assessed across the population and a herbicide damage score given at 7 and 14 days. A score of 0 indicates no visible damage or stunting whereas a score of 100 indicates a complete death of the plant. 20 transgenic events (i.e. individual transgenic plants) from each GM tobacco line were transplanted to soil 1 week prior to spraying with PPO inhibiting compounds. WT tobacco is included as a control.
The wild-type Samsun plants show significant damage at the day 7 and 14 assessment time.

Where “and” joins values, the source holds several entries; their conditions need not be identical. Equal values may be shown once.

One may read the inhibition as the share of the control response that was lost under treatment.

Regarding `C#CCN1C(=O)C(F)(F)Oc2cc(F)c(-n3c(=O)n(C)c(=S)n(C)c3=O)cc21` [Herbicide B, trifludimoxazin], in test [1], the inhibition at 0.1 ppm worked out at 79%, the inhibition at 1 ppm came out at 100%, the inhibition at 10 ppm came out at 100% and the inhibition at 100 ppm is 100%. The percentage of damage in the test with Wildtype Samsun tobacco (7 DAT) was found to be 100%. Moreover, the percentage of damage in the test on Wildtype Samsun tobacco (14 DAT) came to 100%.

For the compound `CCOC(=O)C1(C)CC(c2cc(-n3c(=O)cc(C(F)(F)F)n(C)c3=O)c(F)cc2Cl)=NO1` (centres unmarked) [Herbicide C, 3-(2-chloro-4-fluoro-5-(3-methyl-2,6-dioxo-4-trifluoromethyl-3,6-dihydropyrimidin-1(2H)-yl)phenyl)-5-methyl-4,5-dihydroisoxazole-5-carboxylic acid ethyl ester], in test [1], the inhibition at 0.1 ppm is 34%, the inhibition at 1 ppm was determined as 90%, the inhibition at 10 ppm is 99% and the inhibition at 100 ppm was found to be 100%. Besides, the percentage of damage with Wildtype Samsun tobacco (7 DAT) was 100%. For the same compound, the percentage of damage with Wildtype Samsun tobacco (14 DAT) is 100%.

Take `CCOC(=O)COc1ncccc1Oc1cc(-n2c(=O)cc(C(F)(F)F)n(C)c2=O)c(F)cc1Cl` [Herbicide A, epyrifenacil]: in test [1], the inhibition at 0.1 ppm amounted to 58%, the inhibition at 1 ppm is 95%, the inhibition at 10 ppm was 100% and the inhibition at 100 ppm was determined as 100%.

Consider `CCOC(=O)[C@]1(C)CC(c2cc(-n3c(=O)n(C)c(=S)n(C)c3=O)c(F)cc2Cl)=NO1` [Herbicide D, ethyl (5S)-3-[2-chloro-5-(3,5-dimethyl-2,6-dioxo-4-thioxo-1,3,5-triazinan-1-yl)-4-fluoro-phenyl]-5-methyl-4H-isoxazole-5-carboxylate], for which, in test [1], the inhibition at 0.1 ppm came to 4%, the inhibition at 1 ppm came out at 75%, the inhibition at 10 ppm amounted to 99% and the inhibition at 100 ppm was 100%. The percentage of damage in the test with Wildtype Samsun tobacco (7 DAT) is 98% and 100%. In the test with Wildtype Samsun tobacco (14 DAT), this compound returned a percentage of damage of 100%.

Consider `CC(C)N(C)S(=O)(=O)NC(=O)c1cc(-n2c(=O)cc(C(F)(F)F)n(C)c2=O)c(F)cc1Cl` [Herbicide E, saflufenacil], for which, in test [1], the inhibition at 0.1 ppm is 0%, the inhibition at 1 ppm was found to be 39%, the inhibition at 10 ppm turned out to be 86% and the inhibition at 100 ppm came out at 100%.
